The record followed here is patent US10059713B2 (Takeda Pharmaceutical Company Limited, priority 2014, dated 2018).

For this assay, the target named is human GPR43 (Homo sapiens (Human), UniProt O15552). The experiment in a line: Ca-Flux functional assay: determination of agonist/positive allosteric modulator (PAM) activity. The note with it: CHO-K1 Gα16 cells stably expressing human GPR43; compound added with EC20 sodium acetate; intracellular Ca2+ by FLIPR; does not distinguish agonist from PAM. In kind it is cell-based. In short, it runs like this:
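CHO-K1 Gα16 cells stably expressing human GPR43, loaded with Calcium 5 dye 1 h; compounds (10-point half-log from 10 μM) added with sodium acetate at EC20. FLIPR calcium signal gave EC50, two wells per point; agonists and PAMs not distinguished.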

pEC50: −log10 of the molar value.

Sequence of human GPR43 (O15552 whole entry): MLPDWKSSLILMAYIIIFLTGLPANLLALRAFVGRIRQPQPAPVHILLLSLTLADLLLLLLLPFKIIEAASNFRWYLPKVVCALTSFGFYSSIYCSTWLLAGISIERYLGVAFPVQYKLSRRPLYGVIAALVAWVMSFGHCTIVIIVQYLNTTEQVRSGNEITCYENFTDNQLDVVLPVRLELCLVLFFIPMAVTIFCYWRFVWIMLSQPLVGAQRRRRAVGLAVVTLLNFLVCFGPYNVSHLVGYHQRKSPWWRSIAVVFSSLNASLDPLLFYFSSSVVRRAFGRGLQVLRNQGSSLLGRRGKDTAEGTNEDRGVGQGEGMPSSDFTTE

In the case of `CC1CCN(c2ncnc3c(S(=O)(=O)c4ccccc4)c(N)[nH]c23)CC1` [Example 59, 7-(benzenesulfonyl)-4-(4-methylpiperidin-1-yl)-5H-pyrrolo[3,2-d]pyrimidin-6-amine], the pEC50 is 7.24.

In turn, `CCN(CC)c1ncnc2c(S(=O)(=O)c3ccccc3)c(N)[nH]c12` [Example 94, 7-(benzenesulfonyl)-4-N,4-N-diethyl-5H-pyrrolo[3,2-d]pyrimidine-4,6-diamine] showed a pEC50 of 7.21.

As to `Cc1nc(N2C[C@@H](C)OC[C@H]2C)c2[nH]c(N)c(S(=O)(=O)c3ccccc3)c2n1` [Example 217, 7-(benzenesulfonyl)-4-[(2R,5R)-2,5-dimethylmorpholin-4-yl]-2-methyl-5H-pyrrolo[3,2-d]pyrimidin-6-amine], the pEC50 is 8.22.

In turn, `Nc1[nH]c2c(N3CCOC(C4CC4)C3)ncnc2c1S(=O)(=O)c1ccccc1` (centres unmarked) [Example 80, 7-(benzenesulfonyl)-4-(2-cyclopropylmorpholin-4-yl)-5H-pyrrolo[3,2-d]pyrimidin-6-amine] gave a pEC50 of 6.88.

`CC(C)Oc1ccc(S(=O)(=O)c2c(N)[nH]c3c(N4CCOC(C)C4)ncnc23)cc1` (centres unmarked) [Example 126, 4-(2-methylmorpholin-4-yl)-7-[4-(propan-2-yloxy)benzenesulfonyl]-5H-pyrrolo[3,2-d]pyrimidin-6-amine] gave a pEC50 of 7.28.

The compound `Nc1[nH]c2c(C3=CCCC3)ncnc2c1S(=O)(=O)c1ccccc1` [Example 22, 7-(benzenesulfonyl)-4-(cyclopent-1-en-1-yl)-5H-pyrrolo[3,2-d]pyrimidin-6-amine] showed a pEC50 of 7.14.

The compound `CNc1nc(N2CCOC(C)C2)c2[nH]c(N)c(S(=O)(=O)c3ccccc3F)c2n1` (centres unmarked) [Example 298, 7-(2-fluorobenzenesulfonyl)-N2-methyl-4-(2-methylmorpholin-4-yl)-5H-pyrrolo[3,2-d]pyrimidine-2,6-diamine] gave a pEC50 of 8.30. This pEC50 lies 1.16 log units higher than the previous one.

With `Cc1nc(OC2CCOC2(C)C)c2[nH]c(N)c(S(=O)(=O)c3ccccc3)c2n1` (centres unmarked) [Example 258, 7-(benzenesulfonyl)-4-[(2,2-dimethyloxolan-3-yl)oxy]-2-methyl-5H-pyrrolo[3,2-d]pyrimidin-6-amine], the pEC50 was 6.68.

In turn, `Nc1[nH]c2c(C3=CCCCC3)ncnc2c1S(=O)(=O)CC1CCOCC1` [Example 109, 4-(cyclohex-1-en-1-yl)-7-(oxan-4-ylmethanesulfonyl)-5H-pyrrolo[3,2-d]pyrimidin-6-amine] gave a pEC50 of 5.30. This pEC50 lies 1.38 log units lower than the previous one.

`Nc1[nH]c2c(OCC3CCCOC3)ncnc2c1S(=O)(=O)c1ccccc1` (centres unmarked) [Example 157, 7-(benzenesulfonyl)-4-(oxan-3-ylmethoxy)-5H-pyrrolo[3,2-d]pyrimidin-6-amine] gave a pEC50 of 5.80.

Regarding `CC1CC1COc1ncnc2c(S(=O)(=O)c3ccccc3)c(N)[nH]c12` (centres unmarked) [Example 172, 7-(benzenesulfonyl)-4-[(2-methylcyclopropyl)methoxy]-5H-pyrrolo[3,2-d]pyrimidin-6-amine], the pEC50 is 7.11.

`Nc1[nH]c2c(C3=CCCCC3)ncnc2c1Sc1ccccc1` [Example 135, 4-(cyclohex-1-en-1-yl)-7-(phenylsulfanyl)-5H-pyrrolo[3,2-d]pyrimidin-6-amine] had a pEC50 of 6.63.

`Cc1ccc(-c2ncnc3c(S(=O)(=O)c4ccccc4)c(N)[nH]c23)cc1` [Example 104, 7-(benzenesulfonyl)-4-(4-methylphenyl)-5H-pyrrolo[3,2-d]pyrimidin-6-amine] had a pEC50 of 7.23.

Compound `Nc1[nH]c2c(N3CCC3)ncnc2c1S(=O)(=O)c1ccccc1` [Example 30, 4-(azetidin-1-yl)-7-(benzenesulfonyl)-5H-pyrrolo[3,2-d]pyrimidin-6-amine] gave a pEC50 of 5.02.

The compound `Nc1[nH]c2c(-n3cccn3)ncnc2c1S(=O)(=O)c1ccccc1` [Example 128, 7-(benzenesulfonyl)-4-(1H-pyrazol-1-yl)-5H-pyrrolo[3,2-d]pyrimidin-6-amine] had a pEC50 of 6.10.

`COc1ccc(S(=O)(=O)c2c(N)[nH]c3c(N4CCOC(C)(C)C4)nc(C)nc23)c(F)c1` [Example 241, 4-(2,2-dimethylmorpholin-4-yl)-7-(2-fluoro-4-methoxybenzenesulfonyl)-2-methyl-5H-pyrrolo[3,2-d]pyrimidin-6-amine] gave a pEC50 of 8.70. This pEC50 is 2.60 log units higher than that of the compound before.

Regarding `Nc1[nH]c2c(C3CCCCC3)nc(C3CC3)nc2c1S(=O)(=O)c1ccccc1` [Example 131, 7-(benzenesulfonyl)-4-cyclohexyl-2-cyclopropyl-5H-pyrrolo[3,2-d]pyrimidin-6-amine], the pEC50 is 6.78.

For the compound `Cc1nc(N2CCOC(C)C2)c2[nH]c(N)c(S(=O)(=O)c3ccc(F)cc3F)c2n1` (centres unmarked) [Example 262, 7-(2,4-difluorobenzenesulfonyl)-2-methyl-4-(2-methylmorpholin-4-yl)-5H-pyrrolo[3,2-d]pyrimidin-6-amine], the pEC50 is 8.30.

`CC1COCCN1c1ncnc2c(S(=O)(=O)c3ccccc3)c(N)[nH]c12` (centres unmarked) [Example 54, 7-(benzenesulfonyl)-4-(3-methylmorpholin-4-yl)-5H-pyrrolo[3,2-d]pyrimidin-6-amine] showed a pEC50 of 6.68. Against the preceding compound, the pEC50 is 1.62 log units lower.

`CCc1nc(C2CCCCC2)c2[nH]c(N)c(S(=O)(=O)c3ccccc3)c2n1` [Example 53, 7-(benzenesulfonyl)-4-cyclohexyl-2-ethyl-5H-pyrrolo[3,2-d]pyrimidin-6-amine]: the pEC50 is 7.24.

For `Nc1[nH]c2c(C3CCCCC3)ncnc2c1S(=O)(=O)c1cccc(F)c1` [Example 39, 4-cyclohexyl-7-[(3-fluorobenzene)sulfonyl]-5H-pyrrolo[3,2-d]pyrimidin-6-amine], the pEC50 was 7.10.

`CC1CN(c2ncnc3c(S(=O)(=O)c4cccnc4)c(N)[nH]c23)CCO1` (centres unmarked) [Example 122, 4-(2-methylmorpholin-4-yl)-7-(pyridine-3-sulfonyl)-5H-pyrrolo[3,2-d]pyrimidin-6-amine]: the pEC50 was 6.20. Compared with the last compound, the pEC50 is 0.90 log units lower.

`Nc1[nH]c2c(C3=CCCCC3)ncnc2c1S(=O)(=O)C1CCOCC1` [Example 61, 4-(cyclohex-1-en-1-yl)-7-(oxane-4-sulfonyl)-5H-pyrrolo[3,2-d]pyrimidin-6-amine] had a pEC50 of 5.46.

`COc1ccc(F)c(S(=O)(=O)c2c(N)[nH]c3c(N4CCOC(C)C4)nc(C)nc23)c1` (centres unmarked) [Example 267, 7-(2-fluoro-5-methoxybenzenesulfonyl)-2-methyl-4-(2-methylmorpholin-4-yl)-5H-pyrrolo[3,2-d]pyrimidin-6-amine] gave a pEC50 of 8.40. This pEC50 lies 2.94 log units higher than the previous one.

Consider `CC1(COc2ncnc3c(S(=O)(=O)c4ccccc4)c(N)[nH]c23)CC1` [Example 173, 7-(benzenesulfonyl)-4-[(1-methylcyclopropyl)methoxy]-5H-pyrrolo[3,2-d]pyrimidin-6-amine], for which the negative logarithm of the EC50 (pEC50) is 6.44.

The compound `Nc1[nH]c2c(C3CCCCC3)ncnc2c1S(=O)(=O)c1ccc(F)cc1` [Example 27, 4-cyclohexyl-7-[(4-fluorobenzene)sulfonyl]-5H-pyrrolo[3,2-d]pyrimidin-6-amine] gave a pEC50 of 7.05.

On to `Cc1nc(N2CCCC(C)C2)c2[nH]c(N)c(S(=O)(=O)c3ccccc3)c2n1` (centres unmarked) [Example 110, 7-(benzenesulfonyl)-2-methyl-4-(3-methylpiperidin-1-yl)-5H-pyrrolo[3,2-d]pyrimidin-6-amine], for which the pEC50 was 7.49.

In turn, `Nc1[nH]c2c(C3=CCCCC3)ncnc2c1S(=O)(=O)c1ccc(OC(F)F)cc1` [Example 33, 4-(cyclohex-1-en-1-yl)-7-{[4-(difluoromethoxy)benzene]sulfonyl}-5H-pyrrolo[3,2-d]pyrimidin-6-amine] showed a pEC50 of 7.28.

Turning to `Cc1nc(N2CCO[C@@H](C(F)(F)F)C2)c2[nH]c(N)c(S(=O)(=O)c3cc(F)ccc3F)c2n1` [Example 291], the pEC50 is 8.52.

Compound `CCC1CN(c2ncnc3c(S(=O)(=O)c4ccccc4)c(N)[nH]c23)CCS1` (centres unmarked) [Example 196, 7-(benzenesulfonyl)-4-(2-ethylthiomorpholin-4-yl)-5H-pyrrolo[3,2-d]pyrimidin-6-amine] showed a pEC50 of 8.00.

As to `Nc1[nH]c2c(N3CCOC4(CCCC4)C3)ncnc2c1S(=O)(=O)c1ccccc1` [Example 102, 7-(benzenesulfonyl)-4-{6-oxa-9-azaspiro[4.5]decan-9-yl}-5H-pyrrolo[3,2-d]pyrimidin-6-amine], the pEC50 is 7.74. This pEC50 is 0.26 log units lower than that of the compound before.

In turn, `Nc1[nH]c2c(-c3ccccc3)ncnc2c1S(=O)(=O)c1ccccc1` [Example 9, 7-(benzenesulfonyl)-4-phenyl-5H-pyrrolo[3,2-d]pyrimidin-6-amine] showed a pEC50 of 7.32. This pEC50 lies 0.42 log units lower than the previous one.

In turn, `CN(c1ncnc2c(S(=O)(=O)c3ccccc3)c(N)[nH]c12)C1CCOC(C)(C)C1` (centres unmarked) [Example 189, 7-(benzenesulfonyl)-4-N-(2,2-dimethyloxan-4-yl)-4-N-methyl-5H-pyrrolo[3,2-d]pyrimidine-4,6-diamine] had a pEC50 of 5.71.

`C=C(C)c1ncnc2c(S(=O)(=O)c3ccccc3)c(N)[nH]c12` [Example 12, 7-(benzenesulfonyl)-4-(prop-1-en-2-yl)-5H-pyrrolo[3,2-d]pyrimidin-6-amine] had a pEC50 of 6.45. This pEC50 lies 0.74 log units higher than the previous one.

Take `Nc1[nH]c2c(N3CCCCC3)ncnc2c1S(=O)(=O)c1ccccc1` [Example 7, 7-(benzenesulfonyl)-4-(piperidin-1-yl)-5H-pyrrolo[3,2-d]pyrimidin-6-amine]: the pEC50 was 7.33.

Turning to `Cc1nc(N2CCOC(C)C2)c2[nH]c(N)c(S(=O)(=O)c3ccccc3)c2n1` (centres unmarked) [Example 111, 7-(benzenesulfonyl)-2-methyl-4-(2-methylmorpholin-4-yl)-5H-pyrrolo[3,2-d]pyrimidin-6-amine], the pEC50 was 7.72.

With `COC1CCCN(c2ncnc3c(S(=O)(=O)c4ccccc4)c(N)[nH]c23)C1` (centres unmarked) [Example 105, 7-(benzenesulfonyl)-4-(3-methoxypiperidin-1-yl)-5H-pyrrolo[3,2-d]pyrimidin-6-amine], the pEC50 was 6.68.

For the compound `Nc1[nH]c2c(OCC3CC3(F)F)ncnc2c1S(=O)(=O)c1ccccc1` (centres unmarked) [Example 175, 7-(benzenesulfonyl)-4-[(2,2-difluorocyclopropyl)methoxy]-5H-pyrrolo[3,2-d]pyrimidin-6-amine], the pEC50 is 6.43.

In general, pEC50 refers to the EC50 on a negative log10 scale, so that one unit is a factor of ten.
